Experimental data taken from patent US8193191B2, “Urotensin II receptor antagonists” (Janssen Pharmaceutica N.V., priority 2006, dated 2012).

Columns and labels:
[1] = target: T1, Human UII receptor, 6D9 human rhabdomyosarcoma cells (Homo sapiens, UniProt Q9UKP6); experiment: Human UII Calcium Mobilization Assay; format: cell-based; conditions: average value, FLIPR TETRA, read-out: Human UII Ca^+ Mobilization Average IC50
T1 construct: 6D9: isolated by dilution subcloning of RMS13 cells, ATCC® Number: CRL-2061; host or cells: 6D9 human rhabdomyosarcoma cells (subclone of RMS13)
T1 sequence (Q9UKP6 1-389): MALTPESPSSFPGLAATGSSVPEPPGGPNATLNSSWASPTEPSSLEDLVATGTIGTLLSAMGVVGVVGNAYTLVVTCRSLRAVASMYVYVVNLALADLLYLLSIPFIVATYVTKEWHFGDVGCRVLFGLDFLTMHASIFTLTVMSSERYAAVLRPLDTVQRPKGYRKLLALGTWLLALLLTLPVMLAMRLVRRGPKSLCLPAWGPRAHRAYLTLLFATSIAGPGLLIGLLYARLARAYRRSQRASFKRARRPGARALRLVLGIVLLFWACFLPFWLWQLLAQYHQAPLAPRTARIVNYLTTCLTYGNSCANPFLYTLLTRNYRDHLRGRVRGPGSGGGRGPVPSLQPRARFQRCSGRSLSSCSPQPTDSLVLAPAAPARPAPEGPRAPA
Procedure: 6D9 human rhabdomyosarcoma cells were seeded into tissue culture treated 384-well black-walled clear bottom plates (3712, Corning Incorporated, Corning, N.Y.) at 8,000 cells/well in 25 μL of culture medium, and maintained in an incubator (5% CO2 at 37° C.) for 22 hrs prior to the calcium mobilization assay. 25 μL of dye solution was added to the wells such that the final liquid volume before agonist/antagonist treatment was 50 μL for all assays. The cell plates were incubated at 37° C. for 45 minutes and the fluorescence intensity was measured on a Fluorometric Imaging Plate Reader (FLIPR^TETRA, Molecular Devices, Sunnyvale, Calif.).
Antagonist and agonist U-II were added at room temperature on the FLIPR^TETRA, and the fluorescence intensity before and after addition was measured over a period of 4 minutes. The dye incubation time and temperature as well as instrument setting was adjusted so the fluorescence intensity could be compared between plates on the same day. EC50 and IC50 were analyzed using GraphPad Prism 4 software (GraphPad Software Inc., San Diego, Calif.).
Materials and reagent Preparation: Human Rhabdomyosarcoma cells (6D9: isolated by dilution subcloning of RMS13 cells, ATCC® Number: CRL-2061, American Type Culture Collection ATCC, Manassas, Va.) was maintained in RPMI-1640 medium (30-2001, ATCC, Manassas, Va.) supplemented with 10% (v/v) Fetal Bovine Serum (SH30071.03, Hyclone, Logan, Utah).
Dye preparation: BD™ Calcium Assay Kit (80500-301, BD Biosciences, Rockville, Md.) was prepared according to the manufacture's instruction in 1× Hanks' balanced salt solution (HBSS, 21-023-CV, Mediatech, Inc. Herndon, Va.) containing 20 mM HEPES buffer (25-060-CI, Mediatech, Inc. Herndon, Va.). Final dye loading conditions included 1.25 mM probenecid (P36400, Invitrogen, Carlsbad, Calif.) and 0.01% FBS.
Urantide (PUT-3639-PI, Peptide International, Louisville, Ky.) was prepared in water at 5 mM. For assays, U-II agonist, U-II antagonist and urantide were diluted with HBSS/HEPES containing 0.01% FBS.
Test compounds were dissolved in DMSO at 10 mM concentration. The serial dilutions were carried out in HBSS/HEPES. The highest final DMSO concentration was at 0.1%.

[2] = target: T2, rat GPR14 (U-II receptor) (Rattus norvegicus, UniProt P49684); experiment: Rat UII Calcium Mobilization FLIPR Assay; format: cell-based; conditions: average value for the compound tested; read-out: Rat UII FLIPR Average IC50
T2 construct: expressed in transfected cells
T2 sequence (P49684 1-386): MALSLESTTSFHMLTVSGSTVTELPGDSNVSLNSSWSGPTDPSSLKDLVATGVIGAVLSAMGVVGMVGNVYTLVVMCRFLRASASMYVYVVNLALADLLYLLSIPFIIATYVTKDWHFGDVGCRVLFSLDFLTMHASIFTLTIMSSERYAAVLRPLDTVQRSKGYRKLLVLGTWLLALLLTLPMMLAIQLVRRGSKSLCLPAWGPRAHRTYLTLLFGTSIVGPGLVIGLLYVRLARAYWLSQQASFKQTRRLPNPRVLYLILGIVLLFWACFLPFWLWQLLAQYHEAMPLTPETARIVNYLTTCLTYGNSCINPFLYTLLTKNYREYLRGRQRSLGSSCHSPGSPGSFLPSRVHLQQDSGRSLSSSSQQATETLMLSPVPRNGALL
In short: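 CHO cells stably expressing rat U-II receptor, seeded 24 h before assay, were loaded with FLIPR calcium dye in HBSS/20 mM HEPES/0.1% BSA/2.5 mM probenecid, pH 7.4, for 1 h at 37° C. Calcium mobilization then read by FLIPR at 23° C.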

[3] = target: T3, endogenous human UII receptor (Homo sapiens, UniProt Q9UKP6); experiment: Human Radioligand Binding Assay ((^125I)-U-II binding to human skeletal muscle myoblasts)
T3 sequence (Q9UKP6 1-389): T1 sequence (Q9UKP6 1-389)

COc1ccc(CN2C(=O)c3cccc(N4CCN(C5C6CC7CC(C6)CC5C7)CC4)c3C2=O)cc1OC (centres unmarked) [Cpd 87, 4-(4-adamantan-2-yl-piperazin-1-yl)-2-(3,4-dimethoxy-benzyl)-isoindole-1,3-dione] was tested, and the IC50 [1] was 1.5 µM and the IC50 [2] was 0.48 µM.
Work on COc1ccc(C(CCNC(=O)Cc2ccncc2)N2C(=O)c3cccc(N4CCN([C@H](C)c5ccccc5)CC4)c3C2=O)cc1OC (stereo partly drawn) [Cpd 103, N-(3-(3,4-dimethoxy-phenyl)-3-{1,3-dioxo-4-[4-(1R)-(1-phenyl-ethyl)-piperazin-1-yl]-1,3-dihydro-isoindol-2-yl}-propyl)-2-pyridin-4-yl-acetamide] yielded an IC50 [1] of 0.59 µM and an IC50 [2] of 0.035 µM.
COc1ccc([C@@H](CCCNS(=O)(=O)c2ccc(C)s2)N2C(=O)c3cccc(N4CCN([C@H](C)c5ccccc5)CC4)c3C2=O)cc1OC [Cpd 126, (R)-5-methyl-thiophene-2-sulfonic acid (4-(3,4-dimethoxy-phenyl)-4-{1,3-dioxo-4-[4-(1R)-(1-phenyl-ethyl)-piperazin-1-yl]-1,3-dihydro-isoindol-2-yl}-butyl)-amide] showed a Ki [3] of 0.34 µM and an IC50 [2] of 0.081 µM.
COc1ccc([C@@H](CCCNS(=O)(=O)c2cnc(C)n2C)N2C(=O)c3cccc(N4CCN([C@H](C)c5ccccc5)CC4)c3C2=O)cc1OC [Cpd 127, (R)-2,3-dimethyl-3H-imidazole-4-sulfonic acid (4-(3,4-dimethoxy-phenyl)-4-{1,3-dioxo-4-[4-(1R)-(1-phenyl-ethyl)-piperazin-1-yl]-1,3-dihydro-isoindol-2-yl}-butyl)-amide] showed an IC50 [1] of 0.35 µM and an IC50 [2] of 0.0064 µM.
COc1ccc([C@@H](CCCNS(=O)(=O)c2sc(NC(C)=O)nc2C)N2C(=O)c3cccc(N4CCN([C@H](C)c5ccccc5)CC4)c3C2=O)cc1OC [Cpd 130, (R)-N-[5-(4-(3,4-dimethoxy-phenyl)-4-{1,3-dioxo-4-[4-(1R)-(1-phenyl-ethyl)-piperazin-1-yl]-1,3-dihydro-isoindol-2-yl}-butylsulfamoyl)-4-methyl-thiazol-2-yl]-acetamide] was tested, and the Ki [3] was > 0.3 µM and the IC50 [2] was 0.054 µM.
For COc1ccc([C@@H](CCCNS(=O)(=O)c2cc(C)sc2C)N2C(=O)c3cccc(N4CCN([C@H](C)c5ccccc5)CC4)c3C2=O)cc1OC [Cpd 131, (R)-2,5-dimethyl-thiophene-3-sulfonic acid (4-(3,4-dimethoxy-phenyl)-4-{1,3-dioxo-4-[4-(1R)-(1-phenyl-ethyl)-piperazin-1-yl]-1,3-dihydro-isoindol-2-yl}-butyl)-amide], the Ki [3] was > 0.3 µM and the IC50 [2] was 0.12 µM.
COc1ccc([C@@H](CCCNS(=O)(=O)C2CCS(=O)(=O)C2)N2C(=O)c3cccc(N4CCN([C@H](C)c5ccccc5)CC4)c3C2=O)cc1OC (stereo partly drawn) [Cpd 133, (R)-1,1-dioxo-tetrahydro-1λ^6-thiophene-3-sulfonic acid (4-(3,4-dimethoxy-phenyl)-4-{1,3-dioxo-4-[4-(1R)-(1-phenyl-ethyl)-piperazin-1-yl]-1,3-dihydro-isoindol-2-yl}-butyl)-amide] gave a Ki [3] of 0.059 µM and an IC50 [2] of 0.014 µM.
With CCn1cc(S(=O)(=O)NCCC[C@H](c2ccc(OC)c(OC)c2)N2C(=O)c3cccc(N4CCN([C@H](C)c5ccccc5)CC4)c3C2=O)cn1 [Cpd 134, (R)-1-ethyl-1H-pyrazole-4-sulfonic acid (4-(3,4-dimethoxy-phenyl)-4-{1,3-dioxo-4-[4-(1R)-(1-phenyl-ethyl)-piperazin-1-yl]-1,3-dihydro-isoindol-2-yl}-butyl)-amide] the Ki [3] was 0.068 µM and the IC50 [2] was 0.019 µM.
With COc1ccc([C@@H](CCCNS(=O)(=O)c2cn(C)nc2C(F)(F)F)N2C(=O)c3cccc(N4CCN([C@H](C)c5ccccc5)CC4)c3C2=O)cc1OC [Cpd 135, (R)-1-methyl-3-trifluoromethyl-1H-pyrazole-4-sulfonic acid (4-(3,4-dimethoxy-phenyl)-4-{1,3-dioxo-4-[4-(1R)-(1-phenyl-ethyl)-piperazin-1-yl]-1,3-dihydro-isoindol-2-yl}-butyl)-amide] the Ki [3] was 0.19 µM and the IC50 [2] was 0.056 µM.
In the case of COc1ccc([C@@H](CCCNc2ccccn2)N2C(=O)c3cccc(N4CCN([C@H](C)c5ccccc5)CC4)c3C2=O)cc1OC [Cpd 142, (R)-2-[1-(3,4-dimethoxy-phenyl)-4-(pyridin-2-ylamino)-butyl]-4-[4-(1R)-(1-phenyl-ethyl)-piperazin-1-yl]-isoindole-1,3-dione], the IC50 [1] is reported as 1.1 µM and the IC50 [2] is reported as 0.097 µM.
In the case of COc1ccc([C@@H](CCCNC(=O)CN(C)C)N2C(=O)c3cccc(N4CCN([C@H](C)c5ccccc5)CC4)c3C2=O)cc1OC [Cpd 143, (R)-N-(4-(3,4-dimethoxy-phenyl)-4-{1,3-dioxo-4-[4-(1R)-(1-phenyl-ethyl)-piperazin-1-yl]-1,3-dihydro-isoindol-2-yl}-butyl)-2-dimethylamino-acetamide], the IC50 [1] is reported as 0.69 µM and the IC50 [2] is reported as 0.028 µM.
For COc1ccc([C@@H](CCCNS(=O)(=O)c2cccs2)N2C(=O)c3cccc(N4CCN(CC(F)(F)F)CC4)c3C2=O)cc1OC [Cpd 195, (R)-thiophene-2-sulfonic acid (4-(3,4-dimethoxy-phenyl)-4-{1,3-dioxo-4-[4-(2,2,2-trifluoro-ethyl)-piperazin-1-yl]-1,3-dihydro-isoindol-2-yl}-butyl)-amide], the IC50 [1] was > 10 µM and the IC50 [2] was 2.1 µM.
COc1ccc([C@@H](CCCNC(=O)C(C)C)N2C(=O)c3cccc(OC4CCN(C)C4)c3C2=O)cc1OC (stereo partly drawn) [Cpd 200, (R)-N-{4-(3,4-dimethoxy-phenyl)-4-[4-(1-methyl-pyrrolidin-3-yloxy)-1,3-dioxo-1,3-dihydro-isoindol-2-yl]-butyl}-isobutyramide] was tested, and the IC50 [1] was > 10 µM and the IC50 [2] was 4 µM.
CCN1CCN(c2cccc3c2C(=O)N([C@H](CCCNS(=O)(=O)c2c(C)nn(C)c2C)c2ccc(OC)c(OC)c2)C3=O)CC1 [Cpd 204, (R)-1,3,5-trimethyl-1H-pyrazole-4-sulfonic acid {4-(3,4-dimethoxy-phenyl)-4-[4-(4-ethyl-piperazin-1-yl)-1,3-dioxo-1,3-dihydro-isoindol-2-yl]-butyl}-amide] gave an IC50 [1] of 0.2 µM and an IC50 [2] of 0.0075 µM.
In the case of COc1ccc([C@@H](CCCNC(=O)C(C)C)N2C(=O)c3cccc(OC4CCN(C)CC4)c3C2=O)cc1OC [Cpd 205, (R)-N-{4-(3,4-dimethoxy-phenyl)-4-[4-(1-methyl-piperidin-4-yloxy)-1,3-dioxo-1,3-dihydro-isoindol-2-yl]-butyl}-isobutyramide], the IC50 [1] is reported as > 3 µM and the IC50 [2] is reported as 3.7 µM.
For COc1ccc([C@@H](CCNC(=O)OCc2ccccc2)N2C(=O)c3cccc(N4CCN([C@H](C)c5ccccc5)CC4)c3C2=O)cc1OC [Cpd 216, (R)-(3-(3,4-dimethoxy-phenyl)-3-{1,3-dioxo-4-[4-(1R)-(1-phenyl-ethyl)-piperazin-1-yl]-1,3-dihydro-isoindol-2-yl}-propyl)-carbamic acid benzyl ester], the Ki [3] was 0.13 µM and the IC50 [2] was 0.064 µM.
